target: human active recombinant p38α-6His tagged (Homo sapiens, UniProt Q16539); test: P38 Alpha Enzyme Assay (AlphaScreen, biotinylated-ATF2 substrate); format: biochemical; details: p38 alpha enzyme inhibition; means of replicate determinations; 4 h pre-incubation at 37° C.; SD of assay 0.2-0.3 log units;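 also: 0.5 nM final p38α, reaction started with ATP and run 45 min at 37 °C, phospho-ATF2 read by antibody-based AlphaScreen, background wells quenched with EDTA before ATP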
Sequence (Q16539 whole entry): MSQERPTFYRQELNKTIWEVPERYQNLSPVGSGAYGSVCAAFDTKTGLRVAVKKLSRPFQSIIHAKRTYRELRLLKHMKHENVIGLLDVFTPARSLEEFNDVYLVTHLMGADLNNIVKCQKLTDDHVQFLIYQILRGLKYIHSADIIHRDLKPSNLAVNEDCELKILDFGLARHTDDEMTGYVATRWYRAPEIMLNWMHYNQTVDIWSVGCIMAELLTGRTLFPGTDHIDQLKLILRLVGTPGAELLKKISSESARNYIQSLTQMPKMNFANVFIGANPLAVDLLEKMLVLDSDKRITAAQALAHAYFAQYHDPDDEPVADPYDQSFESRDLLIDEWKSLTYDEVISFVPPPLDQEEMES

Structure (SMILES)	pIC50
COCCNCCOc1ccccc1C1(Nc2nccn(-c3cc(C(=O)NC4CC4)ccc3C)c2=O)CC1 [Example 231, N-Cyclopropyl-3-[3-[[1-[2-[2-[(2-methoxyethyl)amino]ethoxy]phenyl]cyclopropyl]amino]-2-oxo-1(2H)-pyrazinyl]-4-methyl-benzamide]	9.9
Cc1ccc(C(=O)NC2CC2)cc1-n1ccnc(NC2(c3ccccc3OCCN3CCN(CCO)CC3)CC2)c1=O [Example 232, N-Cyclopropyl-3-[3-[[1-[2-[2-[4-(2-hydroxyethyl)-1-piperazinyl]ethoxy]phenyl]cyclopropyl]amino]-2-oxo-1(2H)-pyrazinyl]-4-methyl-benzamide]	9.1
Cc1ccc(C(=O)NC2CC2)cc1-n1ccnc(NC2(c3ccccc3OCCNCCO)CC2)c1=O [Example 233, N-Cyclopropyl-3-[3-[[1-[2-[2-[(2-hydroxyethyl)amino]ethoxy]phenyl]cyclopropyl]amino]-2-oxo-1(2H)-pyrazinyl]-4-methyl-benzamide]	9.9
Cc1ccc(C(=O)NC2CC2)cc1-n1ccnc(NC2(c3ccccc3OCCNC(C)C)CC2)c1=O [Example 234, N-Cyclopropyl-4-methyl-3-[3-[[1-[2-[2-[(1-methylethyl)amino]ethoxy]phenyl]cyclopropyl]amino]-2-oxo-1(2H)-pyrazinyl]-benzamide]	10.3
Cc1ccc(C(=O)NC2CC2)cc1-n1ccnc(NC2(c3ccccc3OCCN3CCCN(C)CC3)CC2)c1=O [Example 235, N-Cyclopropyl-3-[3-[[1-[2-[2-(hexahydro-4-methyl-1H-1,4-diazepin-1-yl)ethoxy]phenyl]cyclopropyl]amino]-2-oxo-1(2H)-pyrazinyl]-4-methyl-benzamide]	9.7
Cc1ccc(C(=O)NC2CC2)cc1-n1ccnc(NC2(c3ccccc3OCCN3CC[C@@H](O)C3)CC2)c1=O [Example 236, N-Cyclopropyl-3-[3-[[1-[2-[2-[(3R)-3-hydroxy-1-pyrrolidinyl]ethoxy]phenyl]cyclopropyl]amino]-2-oxo-1(2H)-pyrazinyl]-4-methyl-benzamide]	10
Cc1ccc(C(=O)NC2CC2)cc1-n1ccnc(NC2(c3ccccc3OCCN(C)C)CC2)c1=O [Example 237, N-Cyclopropyl-3-[3-[[1-[2-[2-(dimethylamino)ethoxy]phenyl]cyclopropyl]amino]-2-oxo-1(2H)-pyrazinyl]-4-methyl-benzamide]	9.9
Cc1ccc(C(=O)NC2CC2)cc1-n1ccnc(NC2(c3ccccc3OCCN3CCCC3)CC2)c1=O [Example 238, N-Cyclopropyl-4-methyl-3-[2-oxo-3-[[1-[2-[2-(1-pyrrolidinyl)ethoxy]phenyl]cyclopropyl]amino]-1(2H)-pyrazinyl]-benzamide]	9.7
Cc1ccc(C(=O)NC2CC2)cc1-n1ccnc(NC2(c3ccccc3OCCN3CCC[C@H]3CO)CC2)c1=O [Example 239, N-Cyclopropyl-3-[3-[[1-[2-[2-[(2S)-2-(hydroxymethyl)-1-pyrrolidinyl]ethoxy]phenyl]cyclopropyl]amino]-2-oxo-1(2H)-pyrazinyl]-4-methyl-benzamide]	9.6
Cc1ccc(C(=O)NC2CC2)cc1-n1ccnc(NC2(c3ccccc3OCCNCC(F)(F)F)CC2)c1=O [Example 240, N-Cyclopropyl-4-methyl-3-[2-oxo-3-[[1-[2-[2-[(2,2,2-trifluoroethyl)amino]ethoxy]phenyl]cyclopropyl]amino]-1(2H)-pyrazinyl]-benzamide]	8.8
CCN(C)CCOc1ccccc1C1(Nc2nccn(-c3cc(C(=O)NC4CC4)ccc3C)c2=O)CC1 [Example 241, N-Cyclopropyl-3-[3-[[1-[2-[2-(ethylmethylamino)ethoxy]phenyl]cyclopropyl]amino]-2-oxo-1(2H)-pyrazinyl]-4-methyl-benzamide]	9.5
Cc1ccc(C(=O)NC2CC2)cc1-n1ccnc(NC2(c3ccccc3OCCNCC(C)(C)CO)CC2)c1=O [Example 242, N-Cyclopropyl-3-[3-[[1-[2-[2-[(3-hydroxy-2,2-dimethylpropyl)amino]ethoxy]phenyl]cyclopropyl]amino]-2-oxo-1(2H)-pyrazinyl]-4-methyl-benzamide]	9.7
Cc1ccc(C(=O)NC2CC2)cc1-n1ccnc(NC2(c3ccccc3OCCN3CCNCC3)CC2)c1=O [Example 243, N-Cyclopropyl-4-methyl-3-[2-oxo-3-[[1-[2-[2-(1-piperazinyl)ethoxy]phenyl]cyclopropyl]amino]-1(2H)-pyrazinyl]-benzamide]	9.4
Cc1ccc(C(=O)NC2CC2)cc1-n1ccnc(NC2(c3ccccc3OCCN3CCC(F)(F)C3)CC2)c1=O [Example 244, N-Cyclopropyl-3-[3-[[1-[2-[2-(3,3-difluoro-1-pyrrolidinyl)ethoxy]phenyl]cyclopropyl]amino]-2-oxo-1(2H)-pyrazinyl]-4-methyl-benzamide]	9.2
Cc1ccc(C(=O)NC2CC2)cc1-n1ccnc(NC2(c3ccccc3OCCNCCF)CC2)c1=O [Example 245, N-Cyclopropyl-3-[3-[[1-[2-[2-[(2-fluoroethyl)amino]ethoxy]phenyl]cyclopropyl]amino]-2-oxo-1(2H)-pyrazinyl]-4-methyl-benzamide]	9.5
CCC(C)NCCOc1ccccc1C1(Nc2nccn(-c3cc(C(=O)NC4CC4)ccc3C)c2=O)CC1 (stereo not shown) [Example 246, N-Cyclopropyl-4-methyl-3-[3-[[1-[2-[2-[(1-methylpropyl)amino]ethoxy]phenyl]cyclopropyl]amino]-2-oxo-1(2H)-pyrazinyl]-benzamide]	9.8
Cc1ccc(C(=O)NC2CC2)cc1-n1ccnc(NC2(c3ccccc3OCCN3CCC[C@H]3C)CC2)c1=O [Example 247, N-Cyclopropyl-4-methyl-3-[3-[[1-[2-[2-[(2R)-2-methyl-1-pyrrolidinyl]ethoxy]phenyl]cyclopropyl]amino]-2-oxo-1(2H)-pyrazinyl]-benzamide]	9.8
Cc1ccc(C(=O)NC2CC2)cc1-n1ccnc(NC2(c3ccccc3OCCNC3CCC3)CC2)c1=O [Example 248, 3-[3-[[1-[2-[2-(cyclobutylamino)ethoxy]phenyl]cyclopropyl]amino]-2-oxo-1(2H)-pyrazinyl]-N-Cyclopropyl-4-methyl-benzamide]	10
Cc1ccc(C(=O)NC2CC2)cc1-n1ccnc(NC2(c3ccccc3OCCN[C@H](C)CO)CC2)c1=O [Example 249, N-Cyclopropyl-3-[3-[[1-[2-[2-[[(1R)-2-hydroxy-1-methylethyl]amino]ethoxy]phenyl]cyclopropyl]amino]-2-oxo-1(2H)-pyrazinyl]-4-methyl-benzamide]	9.9
Cc1ccc(C(=O)NC2CC2)cc1-n1ccnc(NC2(c3ccccc3OCCNCCCO)CC2)c1=O [Example 250, N-Cyclopropyl-3-[3-[[1-[2-[2-[(3-hydroxypropyl)amino]ethoxy]phenyl]cyclopropyl]amino]-2-oxo-1(2H)-pyrazinyl]-4-methyl-benzamide]	9.7
Cc1ccc(C(=O)NC2CC2)cc1-n1ccnc(NC2(c3ccccc3OCCN)CC2)c1=O [Example 251, 3-[3-[[1-[2-(2-aminoethoxy)phenyl]cyclopropyl]amino]-2-oxo-1(2H)-pyrazinyl]-N-cyclopropyl-4-methyl-benzamide]	10.1
CCNCCOc1ccccc1C(C)(C)Nc1nccn(-c2cc(C(=O)NC3CC3)cc(F)c2C)c1=O [Example 252, N-Cyclopropyl-3-[3-[[1-[2-[2-(ethylamino)ethoxy]phenyl]-1-methylethyl]amino]-2-oxo-1(2H)-pyrazinyl]-5-fluoro-4-methyl-benzamide]	10.1
